Values after ≈ are worked out from the molar mass of the structure shown. Like-named read-outs stand apart in the source and are kept apart here.

For one series, the system named is protein synthesis. The settings on record: in words; J. Biol. Chem., vol. 242, p. 3226, 1967; cited from earlier work.
A further series in a line: Stability in the blood. The settings on record: in words.
The next series relates to Cryptococcus neoformans. Kind of series: Antifungal activity: growth inhibition of Cryptococcus neoformans. Type of series: cell-based. The settings on record: potato dextrose agar, 25° C., 7 days. Here is the method: (§1) Experiment 3: Measurement of antifungal activity of anisomycin derivatives
(§2) The growth-inhibiting activity of the present compounds against various fungi was investigated. Into each well of a 6-well microplate, 0.3 ml of a solution of each test compound and 2.7 ml of a sterile solution of potato dextrose agar culture medium (kept at a temperature of about 50° C.) were added. After solidification, 5 μl from each suspension of test cells (yeast: approx. 10^3 cells/ml; mold: approx. 10^4 spores/ml) was inoculated onto the above-mentioned agar medium, and the cultures were maintained at 25° C. for 7 days. The growth of the test cells was observed, and the minimum concentration (MIC value) was determined at which complete inhibition of growth occurred. The test compounds were used after adjustment to 1 mg/ml with dimethylsulfoxide and dilution with distilled water.

The test system of the next series is Candida albicans. Put plainly: Antifungal activity: growth inhibition of Candida albicans. As to conditions: potato dextrose agar, 25° C., 7 days. It counts as cell-based. As for the experimental part:
as §1, §2

The test system of another series is Aspergillus fumigatus. Put plainly: Antifungal activity: growth inhibition of Aspergillus fumigatus. The settings on record: potato dextrose agar, 25° C., 7 days. It counts as cell-based. Here is the method: as §1, §2
A further series deals with Saccharomyces cereviceae. Put plainly: Antifungal activity: growth inhibition of Saccharomyces cereviceae. It counts as cell-based. As to conditions: potato dextrose agar, 25° C., 7 days. Here is the method:
as §1, §2

The next series relates to Mucor rouxii. Kind of series: Antifungal activity: growth inhibition of Mucor rouxii. The settings on record: potato dextrose agar, 25° C., 7 days. Type of series: cell-based. As for the experimental part: as §1, §2
Series [1] concerns P388 leukemia tumor cells. Kind of series: Antitumor effect of anisomycin derivatives in vivo (P388 leukemia, CDF1 mice). The arrangement: species or system mouse. As to conditions: P388 i.p. in CDF1 mice; 10 mg/kg i.p. once a day for 10 days. Here is the method: Experiment 4: Antitumor effect of anisomycin derivatives in vivo
Into one group of 5 CDF1 mice, 1×10^6 P388 leukemia tumor cells were intraperitoneally transplanted. Beginning the next day, a 10 mg/kg portion of the test compound dissolved in 0.2 ml of a solution containing an equal volume of dimethylsulfoxide and saline was administered to the mice intraperitoneally once a day for 10 days. The increase in the life span of the mice in days (ILS) was determined according to the following equation: [formula]

The subject of another series is FM3A cells. Kind of series: Inhibitory activity on proliferation of FM3A culture. It counts as cell-based, mouse. The settings on record: for IC50: Mus musculus, read-out: IC50 (50% proliferation inhibition concentration). Here is the method:
Experiment 2: Measurement of inhibitory activity of anisomycin derivatives on proliferation of FM3A culture
The proliferation-inhibiting activity of the present compounds against a culture of FM3A cells derived from mouse mammary tumor was investigated. Into each well of a 96-well microplate was added 50 μl of 10^5 cells/ml of FM3A cells, which had been suspended in a Dulbecco-modified Eagle culture medium containing 10% fetal calf serum. The IC50 (50% proliferation inhibition concentration) was calculated based on the number of surviving cells for a prescribed concentration of the test compounds.

Series [2] is described as follows: Measurement of stability of anisomycin derivatives in rat plasma. Type of series: in vitro ADME. As for the experimental part: Experiment 1: Measurement of stability of anisomycin derivatives in rat plasma
To investigate the stability of the present compounds in rat plasma, the half-life thereof was measured. For the measurement, an approximately 0.25 mg portion of each test compound was dissolved in 150 μl of rat plasma, and the solution was incubated at 37° C. Aliquots were taken over specific periods of time, and the amount of residual anisomycin derivative was measured by HPLC to determine the half-life thereof.

The mark [3] stands for this setting: 168 h, read-out: MIC (minimum concentration at which complete inhibition of growth occurred).

For `COc1ccc(CC2NCC(O)C2OC(C)=O)cc1` (single isomer, unassigned) [Anisomycin, anisomycin], the cytotoxic activity entry with protein synthesis is given as “strong cytotoxic activity due to its inhibitory effect on protein synthesis”. Besides, in the series “Stability in the blood”, the “stability in the blood” value is “extremely unstable in the blood and is rapidly hydrolyzed”. Also, the “MIC (minimum concentration at which complete inhibition of growth occurred)” value in the series with Cryptococcus neoformans was 25 µg/mL; against Candida albicans, 100 µg/mL; against Aspergillus fumigatus it was more than 100 µg/mL; against Saccharomyces cereviceae, 12.5 µg/mL; with Mucor rouxii, more than 100 µg/mL. Further, the “ILS (increase in the life span of the mice)” value in series [1] came out at 0%. Moreover, the “IC50 (50% proliferation inhibition concentration)” value in the series with FM3A cells was found to be 0.02 µg/mL (≈ 0.0754 µM). Besides, the Half-life in series [2] (rat plasma, 37° C., residual amount by HPLC, read-out: Half-life) is 0.05 h.

As for `CNC(=O)OC1C(O)CNC1Cc1ccc(OC)cc1` (stereo not shown) [Example 1, 3-O-methylcarbamoyl-deacetylanisomycin], the IC50 with FM3A cells came to 0.06 µg/mL (≈ 0.214 µM). The Half-life result in series [2] is recorded as “No decomposition”.

Turning to `COc1ccc(CC2NCC(O)C2OC(N)=O)cc1` (stereo not shown) [Example 2, 3-O-carbamoyldeacetylanisomycin], in [2], the Half-life result was “No decomposition”.

In the case of `COc1ccc(CC2NCC(O)C2OC(=O)NCCCc2ccccc2)cc1` (stereo not shown) [Example 5, 3-O-(3-phenylpropyl)carbamoyldeacetylanisomycin], in series [2], the Half-life entry is reported as “No decomposition”.

`COc1ccc(CC2NCC(O)C2OC(=O)Nc2ccccc2)cc1` (stereo not shown) [Example 11, 3-O-phenylcarbamoyldeacetylanisomycin]: the Half-life entry in [2] is on record as “No decomposition”.

Turning to `COc1ccc(CC2NCC(OC(C)=O)C2OC(N)=O)cc1` (stereo not shown) [Example 15, 4-O-acetyl-3-O-carbamoylanisomycin], in the series with FM3A cells, the IC50 came to 0.039 µg/mL (≈ 0.126 µM). This molecule came in with a Half-life in [2] (rat, plasma) of 6.67 h.

As to `CCCCCC(=O)OC1CNC(Cc2ccc(OC)cc2)C1OC(N)=O` (stereo not shown) [Example 16, 4-O-hexanoyl-3-O-carbamoyldeacetylanisomycin], the IC50 in the series on FM3A cells amounted to 0.039 µg/mL (≈ 0.107 µM).

Consider `CCCCCCC(=O)OC1CNC(Cc2ccc(OC)cc2)C1OC(N)=O` (stereo not shown) [Example 17, 4-O-heptanoyl-3-O-carbamoyldeacetylanisomycin], for which the IC50 in the series on FM3A cells was 0.03 µg/mL (≈ 0.0793 µM).

With `CCCCCCCCCCCC(=O)OC1CNC(Cc2ccc(OC)cc2)C1OC(N)=O` (stereo not shown) [Example 18, 4-O-dodecanoyl-3-O-carbamoyldeacetylanisomycin], the MIC in the series with Cryptococcus neoformans (setting [3]) is 3.1 µg/mL (≈ 6.91 µM); in the series on Candida albicans (setting [3]) it was 50 µg/mL (≈ 111 µM); in the series on Aspergillus fumigatus (setting [3]), 50 µg/mL (≈ 111 µM); in the series with Saccharomyces cereviceae (setting [3]), 25 µg/mL (≈ 55.7 µM); in the series with Mucor rouxii (Amylomyces rouxii, 168 h, read-out: MIC (minimum concentration at which complete inhibition of growth occurred)), 50 µg/mL (≈ 111 µM). For the same molecule, the “ILS (increase in the life span of the mice)” value in series [1] was found to be 44%. Also, the IC50 with FM3A cells was less than 0.02 µg/mL.

As to `COCOC1C(O)CNC1Cc1ccc(OC)cc1` (stereo not shown) [Example 22, 3-O-methoxymethyldeacetylanisomycin], the IC50 with FM3A cells turned out to be 0.062 µg/mL (≈ 0.232 µM). Besides, the Half-life entry in [2] is given as “No decomposition”.

The record behind these values is patent US5463078A, “Anisomycin derivatives and anticancer agents, antifungal agents and antiprotozoan agents containing the same” (Ajinomoto Co., Inc., priority 1993, dated 1995).
